Source: publication PMC5773532, “Crystal structure of an assembly intermediate of respiratory Complex II” (Nature Communications, 2018)

T1: Escherichia coli quinol:fumarate reductase flavoprotein subunit FrdA (isolated subunit) (E. coli, UniProt P00363 1-602, covalent FAD on H44 (8α-N(3)-histidyl linkage))
T1 sequence (looked up): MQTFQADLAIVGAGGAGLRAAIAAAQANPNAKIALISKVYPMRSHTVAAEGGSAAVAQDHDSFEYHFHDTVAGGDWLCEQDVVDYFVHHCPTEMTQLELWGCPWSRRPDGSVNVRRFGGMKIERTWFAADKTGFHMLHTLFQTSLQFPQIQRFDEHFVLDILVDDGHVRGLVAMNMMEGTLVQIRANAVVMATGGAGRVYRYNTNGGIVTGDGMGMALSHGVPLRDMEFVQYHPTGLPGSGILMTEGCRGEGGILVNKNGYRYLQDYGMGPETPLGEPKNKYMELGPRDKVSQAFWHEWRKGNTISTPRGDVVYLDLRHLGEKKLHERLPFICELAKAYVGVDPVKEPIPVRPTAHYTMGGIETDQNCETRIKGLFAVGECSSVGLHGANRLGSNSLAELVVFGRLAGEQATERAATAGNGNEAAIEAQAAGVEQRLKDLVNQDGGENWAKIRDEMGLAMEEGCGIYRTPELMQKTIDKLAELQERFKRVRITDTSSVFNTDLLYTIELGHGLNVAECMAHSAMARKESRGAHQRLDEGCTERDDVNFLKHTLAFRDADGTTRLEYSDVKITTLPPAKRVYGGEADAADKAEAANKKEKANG

T2: Escherichia coli succinate:quinone oxidoreductase flavoprotein subunit SdhA (isolated subunit) (E. coli, UniProt P0AC41 1-588)
T2 sequence (looked up): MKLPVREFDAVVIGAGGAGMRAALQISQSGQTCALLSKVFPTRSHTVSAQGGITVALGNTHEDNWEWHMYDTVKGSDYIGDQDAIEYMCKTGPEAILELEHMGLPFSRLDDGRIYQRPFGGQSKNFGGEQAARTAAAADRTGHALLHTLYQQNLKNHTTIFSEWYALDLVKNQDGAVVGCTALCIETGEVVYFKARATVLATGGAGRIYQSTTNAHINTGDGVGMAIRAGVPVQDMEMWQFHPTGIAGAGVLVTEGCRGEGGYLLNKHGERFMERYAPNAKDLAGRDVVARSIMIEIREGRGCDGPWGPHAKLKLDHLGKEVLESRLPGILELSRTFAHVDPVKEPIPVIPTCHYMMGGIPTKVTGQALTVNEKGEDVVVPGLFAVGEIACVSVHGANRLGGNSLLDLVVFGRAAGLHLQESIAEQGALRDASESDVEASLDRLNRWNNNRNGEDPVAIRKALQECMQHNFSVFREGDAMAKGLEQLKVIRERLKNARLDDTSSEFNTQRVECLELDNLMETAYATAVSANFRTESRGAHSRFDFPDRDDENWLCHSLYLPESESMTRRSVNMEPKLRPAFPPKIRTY


Assays:
E. coli FrdA subunit = biological target: T3, E. coli FrdA subunit (Escherichia coli, UniProt P00363); assay: biochemical; assay type: binding
T3 construct: made in house; host or cells: E. coli RP-2 (RP437ΔfrdΔsdh)
Procedure: (§1) To interrogate dicarboxylate orientation in solution, we focused on oxaloacetate. When oxaloacetate is correctly oriented in the active site, it induces a characteristic spectrum (charge transfer band) attributed to π–π interactions between the oxygen of oxaloacetate and the isoalloxazine ring of FAD.
(§2) Studies were performed using a HP8453 UV/Vis spectrophotometer (Agilent, Santa Clara, CA). Binding experiments were carried out in 50 mM Bis-Tris-Propane (pH 8.0) at 25 °C. The isolated flavoproteins were added to a cuvette and titrated by the sequential addition of ligand solutions. The wavelength giving the highest amplitude change for each ligand was selected from the difference spectra for the analysis. The dissociation constant (Kd) values were obtained by the analysis of the changes in absorbance vs total ligand concentration. The Kd was determined according Eq. 1:1 ΔA=ΔAmaxET+LT+Kd-ET+LT+Kd^2-4ETLT/2ET where ET is a total protein concentration, LT is a total ligand concentration, ΔA and ΔAmax are the absorbance changes at a given and saturation ligand concentration. The protein concentration used for FrdA, SdhA, and quinol:fumarate reductase (QFR) were in a range of 7 to 9 µM. […]

E. coli SdhA subunit = E. coli SdhA subunit (Escherichia coli, UniProt P0AC41); assay: Optical difference spectroscopy, ligand binding to isolated SdhA subunit; settings: read-out: Kd^malonate
Procedure: as §1, §2

FrdA+SdhE = biological target: T4, FrdA+SdhE (Escherichia coli, UniProt P00363); assay: Optical difference spectroscopy, dicarboxylate binding to FrdA in the presence of SdhE
T4 construct: made in house; host or cells: FrdA: E. coli RP-2; SdhE for this assay: not described
Procedure: (§3) If this mechanistic proposal for covalent flavinylation is correct, we would anticipate that the FrdA-SdhE assembly intermediate would bind with reasonable affinity to biologically relevant dicarboxylates. […] Thus, the shifted architecture of SdhE-bound FrdA maintains dicarboxylate binding, supporting our mechanism.
(§4) Studies were performed using a HP8453 UV/Vis spectrophotometer (Agilent, Santa Clara, CA). […] The isolated flavoproteins were added to a cuvette and titrated by the sequential addition of ligand solutions. The wavelength giving the highest amplitude change for each ligand was selected from the difference spectra for the analysis. The dissociation constant (Kd) values were obtained by the analysis of the changes in absorbance vs total ligand concentration. The Kd was determined according Eq. 1:1 ΔA=ΔAmaxET+LT+Kd-ET+LT+Kd^2-4ETLT/2ET where ET is a total protein concentration, LT is a total ligand concentration, ΔA and ΔAmax are the absorbance changes at a given and saturation ligand concentration. The protein concentration used for FrdA, SdhA, and quinol:fumarate reductase (QFR) were in a range of 7 to 9 µM. […] The concentration of the isolated flavoprotein was determined in 0.5% SDS using the FAD extinction coefficient ε^445 = […].

SdhA+SdhE = SdhA+SdhE (Escherichia coli, UniProt P0AC41); assay: Optical difference spectroscopy, dicarboxylate binding to SdhA in the presence of SdhE; settings: read-out: Kd^malonate
Procedure: as §3, §4

[1] = biological target: T1, Escherichia coli quinol:fumarate …; assay: cell-based or functional assay
[2] = biological target: T2, Escherichia coli succinate:quinone …; assay: cell-based or functional assay
[3] = biological target: T1, Escherichia coli quinol:fumarate …; assay: optical difference spectroscopy (FAD absorbance titration); isolated flavoprotein (7 to 9 µM) in the cuvette titrated with SdhE; 50 mM Bis-Tris-Propane pH 8.0, 25 °C; 387–458 nm; fit of absorbance change against total ligand concentration; settings: both partners purified

Row | inhibition by SdhE of the succinate:DCIP reductase reaction of isolated FrdA (0.45 µM), pH 8.0, 30 °C; IC50^SdhE [1] | inhibition by SdhE of the succinate:DCIP reductase reaction of isolated SdhA, pH 8.0, 30 °C; IC50^SdhE [2] | Kd [3] | Molecule | Kd (E. coli FrdA subunit) | Kd (E. coli SdhA subunit) | increase of Kd^malonate in the presence of SdhE (FrdA+SdhE; presence vs absence of SdhE, stated for both FrdA and SdhA subunits) | Kd (FrdA+SdhE; read-out: Kd^malonate) | Kd (SdhA+SdhE)
1 | – | – | – | O=C(O)CC(=O)O [malonate] | 26 ± 3 µM | 11 ± 1 µM | 5- to 7 fold | 180 ± 20 µM | 60 ± 5 µM
2 | 1.2 µM | 1.5 µM | 0.7 ± 0.1 µM | Escherichia coli SdhE assembly factor (natural protein, E. coli, SdhE, FAD assembly factor of E. coli Complex II, as used in optical titrations and kinetics; construct not described) MDINNKARIHWACRRGMRELDISIMPFFEHEYDSLSDDEKRIFIRLLECDDPDLFNWLMNHGKPADAELEMMVRLIQTRNRERGPVAI | – | – | – | – | –
